For assay [1], the target named is T1, cellular TDO2 in HEK293-TDO2 cells (Homo sapiens, UniProt P48775).
T1 construct: expressed in transfected cells; host or cells: HEK293 (ATCC), stably transfected
As to the kind of experiment: 293-TDO2 cell-based assay (Kyn colorimetric). Conditions: 48 hours of incubation. The method in brief: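 HEK293 cells stably expressing TDO2 (10000/well, phenol red-free DMEM, 10% FBS) were dosed 4 h after plating and incubated 48 h at 37° C. Supernatant Kyn was measured after TCA precipitation by 4-(dimethylamino)benzaldehyde colour at 480 nm. IC50 came from four-parameter logistic fits.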

Assay [2] concerns the target T2, IDO1 (Homo sapiens, UniProt P14902). The experiment in a line: Hela cell-based IDO1 assay. Conditions: Hela cells. The method in brief: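 HeLa cells were plated at 8000 per well in 96-well plates containing phenol red-free DMEM with 10% FBS, and after 4 hours compound dilutions made in DMSO were added together with IFN-γ (final 100 ng/mL) and 0.4 mM L-Trp before 48 hours at 37 °C, 5% CO2. Supernatants were deproteinised with trichloroacetic acid, mixed with 2% 4-(dimethylamino)benzaldehyde and read at 480 nm for kynurenine. Four-parameter logistic fits were run in XLfit. Potency was derived from these fits.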

Assay [3] concerns the target T2, IDO1. The experiment in a line: IDO1 enzymatic assay. It is filed as biochemical. Also on record: His tag (N); made in house; host or cells: E. coli. Conditions: read-out: Enzyme IC50 IDO1. The method, boiled down: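 Recombinant IDO1 carrying an N-terminal His tag and purified from E. coli was used at 50 nM with test compound, 1.3 mM D-tryptophan, 5 mM L-ascorbic acid, methylene blue and 0.4 mg/mL catalase in 50 mM potassium phosphate pH 7.5 containing 0.1% BSA. This mixture was incubated at 24 °C for 1.5 hours, after which N'-formylkynurenine formation was followed continuously at 321 nm for 1 hour and activity was taken as the slope. IC50 was derived from the enzyme activity remaining as compound concentration increased.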

The structures appear in SMILES notation.

T1 sequence (P48775 whole entry): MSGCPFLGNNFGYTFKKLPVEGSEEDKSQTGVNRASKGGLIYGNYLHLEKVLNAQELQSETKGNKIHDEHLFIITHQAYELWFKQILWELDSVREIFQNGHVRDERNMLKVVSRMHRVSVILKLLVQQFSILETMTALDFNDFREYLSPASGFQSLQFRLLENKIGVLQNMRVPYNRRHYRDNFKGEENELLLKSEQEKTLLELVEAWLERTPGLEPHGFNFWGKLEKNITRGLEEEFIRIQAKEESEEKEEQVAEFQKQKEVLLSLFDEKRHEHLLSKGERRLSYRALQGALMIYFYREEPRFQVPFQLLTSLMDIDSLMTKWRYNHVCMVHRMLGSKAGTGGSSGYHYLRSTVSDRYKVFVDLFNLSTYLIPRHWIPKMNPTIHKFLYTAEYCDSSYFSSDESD
T2 sequence (P14902 whole entry): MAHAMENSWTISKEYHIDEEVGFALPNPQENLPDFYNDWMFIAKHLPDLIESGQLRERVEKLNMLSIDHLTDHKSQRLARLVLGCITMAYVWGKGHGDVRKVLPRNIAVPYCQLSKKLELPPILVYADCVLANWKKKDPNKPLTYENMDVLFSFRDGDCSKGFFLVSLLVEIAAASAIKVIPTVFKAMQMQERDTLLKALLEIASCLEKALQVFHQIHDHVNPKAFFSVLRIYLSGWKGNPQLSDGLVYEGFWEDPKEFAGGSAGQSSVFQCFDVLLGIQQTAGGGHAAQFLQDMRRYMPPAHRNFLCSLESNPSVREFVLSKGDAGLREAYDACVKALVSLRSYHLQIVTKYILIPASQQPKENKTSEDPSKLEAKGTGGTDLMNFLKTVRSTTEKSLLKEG

Regarding `CC(=O)c1ccc(C2CCC(C(O)c3c(C4CC4)ccc4cncn34)CC2)cc1` (stereo not drawn) [Example D158], the EC50 (in general, the midpoint of the concentration-response curve) is over 10000 nM in assay [1] and 836 nM at IDO1 [2]. Further, the IC50 – broadly, the concentration that gives 50% inhibition – at IDO1 [3] is 58 nM.

As to `CC(=O)Nc1ccc([C@H]2CC[C@H]([C@H](O)c3c(C4CC4)ccc4cncn34)CC2)cc1` [Example D159, N-(4-((1S,4r)-4-((S)-(6-cyclopropylimidazo[1,5-a]pyridin-5-yl)hydroxy)methylcyclohexyl)phenyl)acetamide], the figures for the EC50 (in assay [1]; at IDO1 [2]) were over 10000 nM and 80 nM, respectively. Further, the IC50 at IDO1 [3] is 12 nM.

On to `NC(=O)Nc1ccc([C@H]2CC[C@H]([C@H](O)c3c(C4CC4)ccc4cncn34)CC2)cc1` [Example D160, 1-(4-((1S,4r)-4-((S)-(6-cyclopropylimidazo[1,5-a]pyridin-5-yl)(hydroxy)methyl)cyclohexyl)phenyl)urea], for which the EC50 is over 10000 nM in assay [1] and 128 nM on IDO1 [2]. Further, the IC50 on IDO1 [3] was 15 nM.

For the molecule `OC(c1c(C2CC2)ccc2cncn12)C1CCC(c2ccc3cccnc3c2)CC1` (stereo not drawn) [Example D161, (6-cyclopropylimidazo[1,5-a]pyridin-5-yl)(4-(quinolin-7-yl)cyclohexyl)methanol], the EC50 in assay [1] was over 10000 nM; at IDO1 [2], 263 nM. Also, the IC50 at IDO1 [3] was 34 nM.

`OC(c1c(C2CC2)ccc2cncn12)C1CCC(c2ccc(F)c3ncccc23)CC1` (stereo not drawn) [Example D163, (6-cyclopropylimidazo[1,5-a]pyridin-5-yl)(4-(8-fluoroquinolin-5-yl)cyclohexyl)methanol]: the EC50 was over 10000 nM in assay [1] and 48 nM on IDO1 [2]. Also, the IC50 at IDO1 [3] was 40 nM.

For `OC(c1c(C2CC2)ccc2cncn12)C1CCC(c2ccnc3c(F)cccc23)CC1` (stereo not drawn) [Example D164, (6-cyclopropylimidazo[1,5-a]pyridin-5-yl)(4-(8-fluoroquinolin-4-yl)cyclohexyl)methanol], the values for the EC50 (in assay [1]; at IDO1 [2]) were over 10000 nM and 51 nM, respectively. Also, the IC50 on IDO1 [3] was determined as 33 nM.

For the molecule `NS(=O)(=O)Nc1ccc([C@H]2CC[C@H]([C@H](O)c3c(C4CC4)ccc4cncn34)CC2)cc1` [Example D165, 1-(4-((1 S,4r)-4-((S)-(6-cyclopropylimidazo[1,5-a]pyridin-5-yl)(hydroxy)methyl)cyclohexyl)phenyl) sulfuric diamide], the results for the EC50 (in assay [1]; on IDO1 [2]) were over 10000 nM and 344 nM, respectively. In addition, the IC50 at IDO1 [3] came out at 28 nM.

Take `CC(C)c1ccc2cncn2c1C(O)C1CCC(c2ccc(F)cc2)CC1` (stereo not drawn) [Example D166, (4-(4-fluorophenyl)cyclohexyl)(6-isopropylimidazo[1,5-a]pyridin-5-yl)methanol]: the EC50 in assay [1] is over 10000 nM; at IDO1 [2], 29 nM. Further, on IDO1 [3], the IC50 worked out at 41 nM.

For the molecule `CC(C)c1ccc2cncn2c1C(O)C1CCC(c2cccc(F)c2)CC1` (stereo not drawn) [Example D167, (4-(3-fluorophenyl)cyclohexyl)(6-isopropylimidazo[1,5-a]pyridin-5-yl)methanol], the EC50 is over 10000 nM in assay [1] and 40 nM at IDO1 [2]. Moreover, the IC50 at IDO1 [3] amounted to 69 nM.

On to `CC(C)c1ccc2cncn2c1C(O)C1CCC(c2cccc(Cl)c2)CC1` (stereo not drawn) [Example D168, (4-(3-chlorophenyl)cyclohexyl)(6-isopropylimidazo[1,5-a]pyridin-5-yl)methanol], for which the EC50 in assay [1] was over 10000 nM; at IDO1 [2], 42 nM. At IDO1 [3], the IC50 was 38 nM.

For `COc1cccc(C2CCC(C(O)c3c(C(C)C)ccc4cncn34)CC2)c1` (stereo not drawn) [Example D169, (6-isopropylimidazo[1,5-a]pyridin-5-yl)(4-(3-methoxyphenyl)cyclohexyl)methanol], the figures for the EC50 (in assay [1]; at IDO1 [2]) were over 10000 nM and 22 nM, respectively. Besides, the IC50 on IDO1 [3] amounted to 28 nM.

Turning to `OC(c1c(C2CC2)ccc2cncn12)C1CCN(c2ccccc2)CC1` (stereo not drawn) [Example D170, (6-cycloropylimidazo[1,5-a]pyridin-5-yl)(1-phenylpiperidin-4-yl)methanol], the EC50 was over 10000 nM in assay [1] and 43 nM on IDO1 [2]. The IC50 at IDO1 [3] was found to be 21 nM.

On to `OC(c1c(C2CC2)ccc2cncn12)C1CCN(c2ccc(F)cc2)CC1` (stereo not drawn) [Example D171, (6-cyclopropylimidazo[1,5-a]pyridin-5-yl)(1-(4-fluorophenyl)piperidin-4-yl)methanol], for which the EC50 in assay [1] was over 10000 nM; on IDO1 [2], 36 nM. On IDO1 [3], the IC50 worked out at 22 nM.

For the molecule `OC(c1c(C2CC2)ccc2cncn12)C1CCN(c2cccc(F)c2)CC1` (stereo not drawn) [Example D172], the EC50 in assay [1] is over 10000 nM; at IDO1 [2] it was 58 nM. Moreover, the IC50 at IDO1 [3] amounted to 28 nM.

As to `O[C@H](c1c(C2CC2)ccc2cncn12)C1CCN(c2cccc(F)c2)CC1` [Example D172a], the values for the EC50 (in assay [1]; on IDO1 [2]) were over 10000 nM and 23 nM, respectively. Further, the IC50 at IDO1 [3] was determined as 14 nM.

As to `O[C@@H](c1c(C2CC2)ccc2cncn12)C1CCN(c2cccc(F)c2)CC1` [Example D172b], the EC50 in assay [1] is over 10000 nM; at IDO1 [2], 5400 nM. For the same molecule, the IC50 on IDO1 [3] is 2700 nM.

As for `OC(c1c(C2CC2)ccc2cncn12)C1CCN(c2cccc(Cl)c2)CC1` (stereo not drawn) [Example D173, (1-(3-chlorophenyl)piperidin-4-yl)(6-cyclopropylimidazo[15-a]pyridin-5-yl)methanol], the EC50 in assay [1] is over 10000 nM; on IDO1 [2] it was 65 nM. In addition, the IC50 on IDO1 [3] was found to be 30 nM.

Take `OC(c1c(C2CC2)ccc2cncn12)C1CCN(c2ccc(Cl)cc2)CC1` (stereo not drawn) [Example D174, (1-(4-chlorophenyl)piperidin-4-yl)(6-cyclopropylimidazo[1,5-a]pyridin-5-yl)methanol]: the EC50 in assay [1] is over 10000 nM; on IDO1 [2], 167 nM. Moreover, on IDO1 [3], the IC50 was 38 nM.

Turning to `OC(c1c(C2CC2)ccc2cncn12)C1CCN(c2ccc(F)c3ncccc23)CC1` (stereo not drawn) [Example D175, (6-cyclopropylimidazo[1,5-a]pyridin-5-yl)(1-(8-fluoroquinolin-5-yl)piperidin-4-yl)methanol], the EC50 in assay [1] is over 10000 nM; on IDO1 [2] it was 21 nM. Further, at IDO1 [3], the IC50 was 22 nM.

Consider `Cn1cc(-c2ccc(N3CCC(C(O)c4c(C5CC5)ccc5cncn45)CC3)cc2)cn1` (stereo not drawn) [Example D176, (6-cyclopropylimidazo[1,5-a]pyridin-5-yl)(1-(4-(1-methyl-1H-pyrazol-4-yl)phenyl)piperidin-4-yl)methanol], for which the values for the EC50 (in assay [1]; on IDO1 [2]) were over 10000 nM and 109 nM, respectively. In addition, the IC50 at IDO1 [3] was determined as 25 nM.

As for `OCCn1cc(-c2ccc(N3CCC(C(O)c4c(C5CC5)ccc5cncn45)CC3)cc2)cn1` (stereo not drawn) [Example D177], the EC50 is over 10000 nM in assay [1] and 107 nM at IDO1 [2]. The IC50 at IDO1 [3] was determined as 25 nM.

Consider `OC(c1c(C2CC2)ccc2cncn12)C1CCN(c2ccc(Cl)c3ncccc23)CC1` (stereo not drawn) [Example D178, (1-(8-chloroquinolin-5-yl)piperidin-4-yl)(6-cyclopropylimidazo[1,5-a]pyridin-5-yl)methanol], for which the EC50 in assay [1] was over 10000 nM; at IDO1 [2] it was 40 nM. The IC50 at IDO1 [3] was 24 nM.

As to `OC(c1c(C2CC2)ccc2cncn12)C1CCN(c2ccc3nccc(Cl)c3c2)CC1` (stereo not drawn) [Example D179, (1-(4-chloroquinolin-6-yl)piperidin-4-yl)(6-cyclopropylimidazo[1,5-a]pyridin-5-yl)methanol], the EC50 is over 10000 nM in assay [1] and 187 nM at IDO1 [2]. Besides, the IC50 on IDO1 [3] turned out to be 26 nM.

The values are drawn from US10882856B2 (BeiGene, Ltd., priority 2017, dated 2021).
